Several values for one entry are separate records, joined by “and”; a condition that tells them apart may be missing. Identical values can stand only once.
Legend:
pKa measurement = type: physicochemical
[1] = tested on: Aspergillus fumigatus (ATCC13073); test: Neutropenic lung infection model in mice, lung fungal burden and mortality (Example 24); type: in vivo, BALB/c mice
Procedure: Neutropenic, BALB/c female mice, all of which were from 6 to 8 weeks of age, were infected intranasally with Aspergillus fumigatus (ATCC13073) at inoculum strengths of ˜1×10^6 conidia/animal (Part A) and ˜1×10^4 conidia/animal (Part B). Twenty four hours after infection, animals were treated by aerosol route with vehicle and Nu-8 (10% solution) for one, two, three, and five days. Two hours following treatment, groups of mice were terminated on days 1, 3, and 5, and lungs were collected to determine fungal load. A similar procedure was followed at inoculum strengths of ˜1×10^3 conidia/animal (Part C) and ˜1×10^2 conidia/animal (Part D).
This experiment was performed in four parts: Part A (infection with 1×10^6 conidia/animal), Part B (infection with 1×10^4 conidia/animal), Part C (infection with 1×10^3 conidia/animal), and Part D (infection with 1×10^2 conidia/animal). The mice were separated into cohorts in accordance with Table 13 (Part A), Table 14 (Part B), Table 15 (Part C), and Table 16 (Part D).
On day −4 (four days before the date of infection), each mouse was dosed with a single intraperitoneal injection of cyclophosphamide equivalent to 150 mg/kg and returned to its cage. On day −1 (one day before infection) each mouse received a dose equivalent to 100 mg/kg of cyclophosphamide. Neutropenia was confirmed with differential leukocyte count on day 0.
One week before infection, an aliquot from the glycerol stocks of Aspergillus fumigatus (ATCC13073) was taken and grown on Potato Dextrose Agar (PDA) plates for seven days in an incubator at 25° C. After seven days, conidia were collected by scraping the colonies from the PDA plate with a sterile loop and washing the surface of the plate with sterile distilled water. The conidial suspension was collected into a sterile tube and filtered through 10 layers of sterile cheese (muslin) cloth/Whatman filter paper to remove hyphal fragments from the spore suspension. The optical density of the filtered suspension was adjusted to an equivalent of ˜1×10^8 conidia/ml. The inoculum was serially diluted in normal saline and viability was checked by hemocytometer.
Animals were divided into different groups as specified in the experimental design (Tables 13-16). Infections were conducted in a biological safety cabinet, with appropriate personnel protection. Mice were placed into an induction chamber and anesthesia was induced by exposing the animals to 3%-5% Isoflurane in an oxygen flow set at approximately 1 liter per minute (LPM). Once the animals were in a sufficiently deep plane of anesthesia, they were removed and infected. Infection was done by injection of 0.02 ml (containing ˜1×10^8 CFU/ml for Part A, ˜1×10^6 CFU/ml for Part B, ˜1×10^5 CFU/ml for Part C, and ˜1×10^4 CFU/ml for Part D). 10 μl was instilled into each nostril of the anesthetized animal (˜2×10^6 CFU/animal for Part A, ˜2×10^4 CFU/animal for Part B, ˜2×10^3 CFU/animal for Part C, ˜2×10^2 CFU/animal for Part D) using a 10 μl pipette. A gentle shaking/mixing of inoculum between two animals was followed for uniform distribution.
The vehicle used for the test compound was saline (0.9% NaCl adjusted to pH 3.5 with citric acid). To make 10% solution, 15 g Nu-8 was weighed and dissolved in 145 ml of the saline and the pH of the solution was adjusted to 3.5 with citric acid (0.1 M) in a final volume of 150 ml.
Treatment began twenty four hours after infection. Test formulations were administered by aerosol route with nose only apparatus connected to a nebulizer (Omron Ne-C28 Compressor Nebulizer with a volume capacity of 15 ml, Particle size 3 μm, Nebulization rate: 0.5 ml/min and Aerosol output rate: 0.09 ml/min). Test formulations were placed into the nebulizer fluid cup; animals were placed in the nose-only apparatus, and the entire system was placed inside a Class II Biosafety Cabinet. […]

CCCCOP(=O)(O)OC[C@H]1O[C@@H](n2ccc(N)nc2=O)C[C@@H]1OP(=O)(O)OCCCC [Nu-8, sodium ((2R,3S,5R)-5-(4-amino-2-oxopyrimidin-1(2H)-yl)-3-((butoxyoxidophosphor-yl)oxy)tetrahydrofuran-2-yl)methyl butyl phosphate]
pKa (pKa measurement): 3.20 | Log10 CFU/g lung ([1]; Part A, 1×10^6 conidia/animal, 10% aerosol single dose, individual mice): 6.16 Log10 CFU/g lung and 5.71 Log10 CFU/g lung and 4.51 Log10 CFU/g lung and 5.41 Log10 CFU/g lung and 5.14 Log10 CFU/g lung and 5.76 Log10 CFU/g lung | % Mortality ([1]; Part A, 10% aerosol, 3 doses, once daily for 3 days, day 3): 50% and 50 [day 3] % | Log10 CFU/g lung ([1]; Part A, 10% aerosol, 3 doses, once daily for 3 days, individual surviving mice): 4.96 Log10 CFU/g lung and 5.48 Log10 CFU/g lung and 3.23 Log10 CFU/g lung | Mean ± SD (Log10 CFU/g lung) ([1]; Part A, 10% aerosol, 3 doses, once daily for 3 days, n = 3): 4.56 ± 1.18 Log10 CFU/g lung | Log10 CFU/g lung ([1]; Part A, 10% aerosol, 5 doses, once daily for 5 days, individual surviving mice): 4.28 Log10 CFU/g lung and 4.06 Log10 CFU/g lung | Mean (Log10 CFU/g lung) ([1]; Part A, 10% aerosol, 5 doses, once daily for 5 days, n = 2): 4.17 (n = 2) Log10 CFU/g lung | efficacy vs day 1 control and day 3 vehicle controls ([1]; Part A, day 3 and day 5): marked efficacy | efficacy vs vehicle control ([1]; Part A, single dose (day 1), p>0.05): did not show significant efficacy | mean fungal count ([1]; Part A, treated with Nu-8 (10%) for three days, day 3): 4.56 log10 spores/g lung | mean fungal count ([1]; Part A, treatment with Nu-8 (10%), day 5): 4.17 log10 spores/g lung | Mean ± SD (Log10 spores/g lung) ([1]; Part B, 1×10^4 conidia/animal, 10% aerosol single dose (Table 20 group 3), terminated day 3): 4.41±0.29 Log10 spores/g lung | Log10 spores/g lung ([1]; Part B, 1×10^4 conidia/animal, 10% aerosol single dose, terminated day 3, individual mice): 3.99 Log10 spores/g lung and 4.72 Log10 spores/g lung and 4.51 Log10 spores/g lung and 4.83 Log10 spores/g lung and 4.23 Log10 spores/g lung and 4.45 Log10 spores/g lung and 4.14 Log10 spores/g lung and 4.34 Log10 spores/g lung | Mean ± SD (Log10 spores/g lung) ([1]; Part B, 10% aerosol, 3 doses, once daily for 3 days): 4.31±0.29 Log10 spores/g lung | Log10 spores/g lung ([1]; Part B, 10% aerosol, 3 doses, once daily for 3 days, individual mice): 4.29 Log10 spores/g lung and 4.45 Log10 spores/g lung and 3.93 Log10 spores/g lung and 4.28 Log10 spores/g lung and 4.34 Log10 spores/g lung and 4.87 Log10 spores/g lung and 4.24 Log10 spores/g lung and 4.03 Log10 spores/g lung | Mean ± SD (Log10 spores/g lung) ([1]; Part C, 1×10^3 conidia/animal, 10% aerosol, 3 doses, once daily for 3 days): 3.65±0.50 Log10 spores/g lung | Log10 spores/g lung ([1]; Part C, 1×10^3 conidia/animal, 10% aerosol, 3 doses, once daily for 3 days, individual mice): 4.30 Log10 spores/g lung and 3.67 Log10 spores/g lung and 3.46 Log10 spores/g lung and 4.05 Log10 spores/g lung and 3.54 Log10 spores/g lung and 2.85 Log10 spores/g lung | Mean ± SD (Log10 spores/g lung) ([1]; Part D, 1×10^2 conidia/animal, 10% aerosol, 5 doses, once daily for 5 days): 2.49±0.16 Log10 spores/g lung | Log10 spores/g lung ([1]; Part D, 1×10^2 conidia/animal, 10% aerosol, 5 doses, once daily for 5 days, individual mice): 2.71 Log10 spores/g lung and 2.23 Log10 spores/g lung and 2.50 Log10 spores/g lung and 2.52 Log10 spores/g lung and 2.44 Log10 spores/g lung and 2.56 Log10 spores/g lung

Source: US12030908B2, “Antimicrobial compounds, compositions, and uses thereof” (Lakewood Amedex, Inc., priority 2017, dated 2024)
